These results are taken from PMC9262584 (2022).

The subject of experiment [1] is Cd1^146 (RNA, riboswitch) GGAAACUAAAUAGGCAAAUCUAGAGAAAUCUAGUGACGCAAAGCUAUAGGGACUAAGGUUUAUAUACAUAAACUAUGUCAGCCAGUUGCCAAAAAGAGUCCUAGGUGUAUUGUAUACCUAAGAAAAGUCUAUAAUGACUGCCUUUUUG
The experiment is described as follows: ITC. Conditions: 120 mM NaCl, 8 mM MgCl2 (RNA wash buffer); 50 mM Bis-Tris pH 6.1; individual ITC conditions in SI Figures S11/S12.

Experiment [2] deals with Cd1^135 (RNA, riboswitch) GGAAACUAAAUAGGCAAAUCUAGAGAAAUCUAGUGACGCAAAGCUAUAGGGACUAAGGUUUAUAUACAUAAACUAUGUCAGCCAGUUGCCAAAAAGAGUCCUAGGUGUAUUGUAUACCUAAGAAAAGUCUAUAAUGA
Put plainly: ITC. Conditions: 120 mM NaCl, 8 mM MgCl2 (RNA wash buffer); 50 mM Bis-Tris pH 6.1; individual ITC conditions in SI Figures S11/S12.

For experiment [3], the system named is Cd1^148 (RNA, riboswitch) GGAAACUAAAUAGGCAAAUCUAGAGAAAUCUAGUGACGCAAAGCUAUAGGGACUAAGGUUUAUAUACAUAAACUAUGUCAGCCAGUUGCCAAAAAGAGUCCUAGGUGUAUUGUAUACCUAAGAAAAGUCUAUAAUGACUGCCUUUUUGGC
Put plainly: 2D 1H/15N correlation NMR. The note with it: 110 mM NaCl, MgCl2 at 40 equiv. over RNA; 50 mM Bis-Tris, 5-10% D2O.

For experiment [4], the system named is Cd1^80 (RNA, riboswitch) GGAAACUAAAUAGGCAAAUCUAGAGAAAUCUAGUGACGCAAAGCUAUAGGGACUAAGGUUUAUAUACAUAAACUAUGUCAGC
The experiment is described as follows: 1H NMR reporter peaks. The note with it: 110 mM NaCl, MgCl2 at 40 equiv. over RNA; 50 mM Bis-Tris, 5-10% D2O.

Experiment [5] deals with Cd1^86 (RNA, riboswitch) GGAAACUAAAUAGGCAAAUCUAGAGAAAUCUAGUGACGCAAAGCUAUAGGGACUAAGGUUUAUAUACAUAAACUAUGUCAGCCAGUUG
The experiment is described as follows: ITC. Conditions: 120 mM NaCl, 8 mM MgCl2 (RNA wash buffer); 50 mM Bis-Tris pH 6.1; individual ITC conditions in SI Figures S11/S12.

In experiment [6] the test system is Cd1^88 C87A (RNA, riboswitch) GGAAACUAAAUAGGCAAAUCUAGAGAAAUCUAGUGACGCAAAGCUAUAGGGACUAAGGUUUAUAUACAUAAACUAUGUCAGCCAGUUGAC
Put plainly: 1H NMR reporter peaks. Conditions: 110 mM NaCl, MgCl2 at 40 equiv. over RNA; 50 mM Bis-Tris, 5-10% D2O.

Experiment [7] has as its system Cd1^88 (RNA, riboswitch) GGAAACUAAAUAGGCAAAUCUAGAGAAAUCUAGUGACGCAAAGCUAUAGGGACUAAGGUUUAUAUACAUAAACUAUGUCAGCCAGUUGCC
Put plainly: ITC. Conditions: 120 mM NaCl, 8 mM MgCl2 (RNA wash buffer); 50 mM Bis-Tris pH 6.1; individual ITC conditions in SI Figures S11/S12.

For experiment [8], the system named is Cd1^83 (RNA, riboswitch) GGAAACUAAAUAGGCAAAUCUAGAGAAAUCUAGUGACGCAAAGCUAUAGGGACUAAGGUUUAUAUACAUAAACUAUGUCAGCCAG
The experiment is described as follows: ITC. The note with it: 120 mM NaCl, 8 mM MgCl2 (RNA wash buffer); 50 mM Bis-Tris pH 6.1; individual ITC conditions in SI Figures S11/S12.

Experiment [9] concerns Cd1^88 C81A (RNA, riboswitch) GGAAACUAAAUAGGCAAAUCUAGAGAAAUCUAGUGACGCAAAGCUAUAGGGACUAAGGUUUAUAUACAUAAACUAUGUCAGCAAGUUGCC
The experiment is described as follows: 1H NMR reporter peaks. The note with it: 110 mM NaCl, MgCl2 at 40 equiv. over RNA; 50 mM Bis-Tris, 5-10% D2O.

In experiment [10] the test system is Cd1^87 (RNA, riboswitch) GGAAACUAAAUAGGCAAAUCUAGAGAAAUCUAGUGACGCAAAGCUAUAGGGACUAAGGUUUAUAUACAUAAACUAUGUCAGCCAGUUGC
The experiment is described as follows: ITC. Conditions: 120 mM NaCl, 8 mM MgCl2 (RNA wash buffer); 50 mM Bis-Tris pH 6.1; individual ITC conditions in SI Figures S11/S12.

Experiment [11] has as its system Cd1^81 (RNA, riboswitch) GGAAACUAAAUAGGCAAAUCUAGAGAAAUCUAGUGACGCAAAGCUAUAGGGACUAAGGUUUAUAUACAUAAACUAUGUCAGCC
Put plainly: 1H NMR reporter peaks. The note with it: 110 mM NaCl, MgCl2 at 40 equiv. over RNA; 50 mM Bis-Tris, 5-10% D2O.

In experiment [12] the test system is Cd1^149 (RNA, riboswitch) GGAAACUAAAUAGGCAAAUCUAGAGAAAUCUAGUGACGCAAAGCUAUAGGGACUAAGGUUUAUAUACAUAAACUAUGUCAGCCAGUUGCCAAAAAGAGUCCUAGGUGUAUUGUAUACCUAAGAAAAGUCUAUAAUGACUGCCUUUUUGGCA
Put plainly: 2D 1H/15N correlation NMR. The note with it: 110 mM NaCl, MgCl2 at 40 equiv. over RNA; 50 mM Bis-Tris, 5-10% D2O.

Experiment [13] concerns Cd1^88 G11A (RNA, riboswitch) GGAAACUAAAUAAGCAAAUCUAGAGAAAUCUAGUGACGCAAAGCUAUAGGGACUAAGGUUUAUAUACAUAAACUAUGUCAGCCAGUUGCC
Put plainly: 1H NMR reporter peaks. The note with it: 110 mM NaCl, MgCl2 at 40 equiv. over RNA; 50 mM Bis-Tris, 5-10% D2O.

Experiment [14] relates to Cd1^147 (RNA, riboswitch) GGAAACUAAAUAGGCAAAUCUAGAGAAAUCUAGUGACGCAAAGCUAUAGGGACUAAGGUUUAUAUACAUAAACUAUGUCAGCCAGUUGCCAAAAAGAGUCCUAGGUGUAUUGUAUACCUAAGAAAAGUCUAUAAUGACUGCCUUUUUGG
The experiment is described as follows: 2D 1H/15N correlation NMR. Conditions: 110 mM NaCl, MgCl2 at 40 equiv. over RNA; 50 mM Bis-Tris, 5-10% D2O.

The test system of experiment [15] is Cd1^88 C88A (RNA, riboswitch) GGAAACUAAAUAGGCAAAUCUAGAGAAAUCUAGUGACGCAAAGCUAUAGGGACUAAGGUUUAUAUACAUAAACUAUGUCAGCCAGUUGCA
The experiment is described as follows: 1H NMR reporter peaks. Conditions: 110 mM NaCl, MgCl2 at 40 equiv. over RNA; 50 mM Bis-Tris, 5-10% D2O.

Experiment [16] deals with Cd1^88 A24-26U (RNA, riboswitch) GGAAACUAAAUAGGCAAAUCUAGAGUUUUCUAGUGACGCAAAGCUAUAGGGACUAAGGUUUAUAUACAUAAACUAUGUCAGCCAGUUGCC
Put plainly: 1H NMR reporter peaks. The note with it: 110 mM NaCl, MgCl2 at 40 equiv. over RNA; 50 mM Bis-Tris, 5-10% D2O.

In experiment [17] the test system is Cd1^88 G11C (RNA, riboswitch) GGAAACUAAAUACGCAAAUCUAGAGAAAUCUAGUGACGCAAAGCUAUAGGGACUAAGGUUUAUAUACAUAAACUAUGUCAGCCAGUUGCC
The experiment is described as follows: 1H NMR reporter peaks. Conditions: 110 mM NaCl, MgCl2 at 40 equiv. over RNA; 50 mM Bis-Tris, 5-10% D2O.

Experiment [18] concerns Cd1^82 (RNA, riboswitch) GGAAACUAAAUAGGCAAAUCUAGAGAAAUCUAGUGACGCAAAGCUAUAGGGACUAAGGUUUAUAUACAUAAACUAUGUCAGCCA
The experiment is described as follows: 1H NMR reporter peaks. Conditions: 110 mM NaCl, MgCl2 at 40 equiv. over RNA; 50 mM Bis-Tris, 5-10% D2O.

Each structure is given as a SMILES string.

For the compound `Nc1nc2c(ncn2[C@@H]2O[C@@H]3COP(=O)(O)O[C@H]4[C@@H](O)[C@H](n5cnc6c(=O)[nH]c(N)nc65)O[C@@H]4COP(=O)(O)O[C@H]3[C@H]2O)c(=O)[nH]1`, the dissociation constant (KD) in experiment [1] is 7 ± 2 µM; in [2], 0.6 ± 0.03 µM; in [5], 35 ± 10 µM; in [7], 0.25 ± 0.04 µM; in experiment [8], > >100 μM; in experiment [10] it was 1.9 ± 0.1 µM. Besides, the binding result in experiment [3] was “no”; in [4], “no”; in experiment [6], “weak”; in experiment [9], “no”; in [11] it was “no”; in experiment [12], “no”. For the same compound, the binding result in experiment [13] was “yes”; in [14], “yes”; in experiment [15] it was “yes”; in experiment [16], “no”; in [17], “yes”; in experiment [18] it was “no”.
